Experimental data: patent publication US8501770B2 (ArQule, Inc., priority 2009, dated 2013)
Where two headings read alike, the source gives them in different places.

Biological target: Full-length inactive AKT1 (Homo sapiens, UniProt P31749)
Assay: Inactive Akt Alpha Screen Assay
Format: biochemical
Summary of the method: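 AlphaScreen read-out (excitation 640 nm, emission 570 nm) after 90 min incubation at room temperature in the dark. Signal comes from crosstide phosphorylation by AKT1, which was activated by added PDK1, MAPKAPK2, ATP and lipid vesicles, captured via phospho-AKT substrate antibody and streptavidin beads.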

[1] = AlphaScreen assay (values not marked with *), read-out: Akt1 IC50, (AlphaScreen) (μM) (or if marked with “*” HTRF assay)
[2] = values not marked with "*", read-out: Akt1 IC50, (AlphaScreen)
[3] = values not marked with "*": AlphaScreen assay, read-out: Akt1 IC50, (AlphaScreen)

Chain of Full-length inactive AKT1 (P31749 whole entry): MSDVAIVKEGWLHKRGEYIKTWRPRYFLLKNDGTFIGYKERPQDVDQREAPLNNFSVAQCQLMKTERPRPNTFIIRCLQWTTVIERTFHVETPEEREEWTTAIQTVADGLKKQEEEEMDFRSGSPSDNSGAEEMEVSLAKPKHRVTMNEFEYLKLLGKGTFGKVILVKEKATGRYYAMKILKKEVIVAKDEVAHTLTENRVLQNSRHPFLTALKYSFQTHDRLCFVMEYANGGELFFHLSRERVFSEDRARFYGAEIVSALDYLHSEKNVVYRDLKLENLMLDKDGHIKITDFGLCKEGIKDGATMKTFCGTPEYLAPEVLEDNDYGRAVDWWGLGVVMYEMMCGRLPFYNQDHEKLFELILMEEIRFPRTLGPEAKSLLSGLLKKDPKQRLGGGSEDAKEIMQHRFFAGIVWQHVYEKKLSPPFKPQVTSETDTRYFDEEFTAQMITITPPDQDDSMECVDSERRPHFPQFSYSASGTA

| IC50 [2] | Structure (SMILES) | further results |
| --- | --- | --- |
| – | COc1cccc(-c2ccc3nc(-c4cccnc4N)n(-c4ccc(C5(N)CCC5)cc4)c3n2)c1C#N [Example 444, 2-{3-[4-(1-aminocyclobutyl)phenyl]-2-(2-aminopyridin-3-yl)-3H-imidazo[4,5-b]pyridin-5-yl}-6-methoxybenzonitrile] | IC50 [1]: 0.0068 µM |
| 0.26 µM | COc1ccccc1C(=O)NCc1ccc(-n2c(-c3cccnc3N)nc3cc(C)cnc32)cc1 [Example 221, N-(4-(2-(2-aminopyridin-3-yl)-6-methyl-3H-imidazo[4,5-b]pyridin-3-yl)benzyl)-2-methoxybenzamide] | – |
| 0.099 µM | CC(C)(C)c1ccc(C(=O)NCc2ccc(-n3c(-c4cccnc4N)nc4cccnc43)cc2)cc1 [Example 172, N-{4-[2-(2-aminopyridin-3-yl)-3H-imidazo[4,5-b]pyridin-3-yl]benzyl}-4-tert-butylbenzamide] | – |
| – | Nc1ncccc1-c1nc2cc(F)cnc2n1-c1ccc(CNC(=O)c2ccccc2)cc1 [Example 133, N-(4-(2-(2-aminopyridin-3-yl)-6-fluoro-3H-imidazo[4,5-b]pyridin-3-yl)benzyl)benzamide] | IC50 [3]: 0.106 µM |
| 0.054 µM | CC(=O)Nc1cccc(C(=O)NCc2ccc(-n3c(-c4cccnc4N)nc4cc(C)c(C)nc43)cc2)c1 [Example 347, 3-acetamido-N-(4-(2-(2-aminopyridin-3-yl)-5,6-dimethyl-3H-imidazo[4,5-b]pyridin-3-yl)benzyl)benzamide] | – |
| 0.025 µM | CC(=O)Nc1cccc(C(=O)NCc2ccc(-n3c(-c4cccnc4N)nc4cc(C)cnc43)cc2)c1 [Example 229, 3-acetamido-N-(4-(2-(2-aminopyridin-3-yl)-6-methyl-3H-imidazo[4,5-b]pyridin-3-yl)benzyl)benzamide] | – |
| 1.1 µM | Nc1ncccc1-c1nc2ccc(N3CCCCC3)nc2n1-c1ccc(CNC(=O)c2ccc(Br)cc2)cc1 [Example 191, N-(4-(2-(2-aminopyridin-3-yl)-5-(piperidin-1-yl)-3H-imidazo[4,5-b]pyridin-3-yl)benzyl)-4-bromobenzamide] | – |
| 0.032 µM | Nc1ncccc1-c1nc2cc(-c3cc[nH]c3)cnc2n1-c1ccc(CNC(=O)c2ccccc2)cc1 [Example 237, N-(4-(2-(2-aminopyridin-3-yl)-6-(1H-pyrrol-3-yl)-3H-imidazo[4,5-b]pyridin-3-yl)benzyl)benzamide] | – |
| 0.074 µM | Nc1ncccc1-c1nc2cc(-c3cccnc3)cnc2n1-c1ccc(CNS(=O)(=O)c2ccccc2)cc1 [Example 200, N-(4-(2-(2-aminopyridin-3-yl)-6-(pyridin-3-yl)-3H-imidazo[4,5-b]pyridin-3-yl)benzyl)benzenesulfonamide] | – |
| 0.65 µM | N#Cc1ccc(-c2ccc3nc(-c4cccnc4N)n(-c4ccc(CNC(=O)c5cccc(F)c5)cc4)c3n2)cc1 [Example 326, N-(4-(2-(2-aminopyridin-3-yl)-5-(4-cyanophenyl)-3H-imidazo[4,5-b]pyridin-3-yl)benzyl)-3-fluorobenzamide] | – |
| 0.033 µM | CC(=O)Nc1cccc(-c2ccc3nc(-c4cccnc4N)n(-c4ccc(CNS(=O)(=O)c5cn(C)cn5)cc4)c3n2)c1 [Example 325, N-(3-(2-(2-aminopyridin-3-yl)-3-(4-((1-methyl-1H-imidazole-4-sulfonamido)methyl)phenyl)-3H-imidazo[4,5-b]pyridin-5-yl)phenyl)acetamide] | – |
| 0.18 µM | CS(=O)(=O)NC1(c2ccc(-n3c(-c4cccnc4N)nc4ccc(-c5ccccc5)nc43)cc2)CCC1 [Example 367, N-(1-(4-(2-(2-aminopyridin-3-yl)-5-phenyl-3H-imidazo[4,5-b]pyridin-3-yl)phenyl)cyclobutyl)methanesulfonamide] | – |
| – | Nc1ncccc1-c1nc2cccnc2n1-c1ccc(C2CCCCC2)cc1 [Example 17] | IC50 [3]: 3.9 µM |
| 0.0014 µM | CS(=O)(=O)Nc1cccc(-c2ccc3nc(-c4cccnc4N)n(-c4ccc(C5(N)CCC5)cc4)c3n2)c1 [Example 375, N-(3-(3-(4-(1-aminocyclobutyl)phenyl)-2-(2-aminopyridin-3-yl)-3H-imidazo[4,5-b]pyridin-5-yl)phenyl)methanesulfonamide] | – |
| 0.014 µM | Cc1ccc2nc(-c3cccnc3N)n(-c3ccc(CNC(=O)c4ccc(C(C)C)cc4)cc3)c2n1 [Example 245, N-(4-(2-(2-aminopyridin-3-yl)-5-methyl-3H-imidazo[4,5-b]pyridin-3-yl)benzyl)-4-isopropylbenzamide] | – |
| 0.059 µM | Nc1ncccc1-c1nc2cc(-c3cccnc3)cnc2n1-c1ccc(CNS(=O)(=O)C2CC2)cc1 [Example 205, N-(4-(2-(2-aminopyridin-3-yl)-6-(pyridin-3-yl)-3H-imidazo[4,5-b]pyridin-3-yl)benzyl)cyclopropanesulfonamide] | – |
| – | CS(=O)(=O)c1ccc(-c2cnc3c(c2)nc(-c2cccnc2N)n3-c2ccc(CNC(=O)c3ccccc3)cc2)cc1 [Example 138, N-(4-{2-(2-aminopyridin-3-yl)-6-[4-(methylsulfonyl)phenyl]-3H-imidazo[4,5-b]pyridin-3-yl}benzyl)benzamide] | IC50 [3]: 0.12 µM |
| 0.003 µM | NC(=O)c1cccc(-c2ccc3nc(-c4cccnc4N)n(-c4ccc(C5(N)CCC5)cc4)c3n2)c1 [Example 365, 3-(3-(4-(1-aminocyclobutyl)phenyl)-2-(2-aminopyridin-3-yl)-3H-imidazo[4,5-b]pyridin-5-yl)benzamide] | – |

| IC50 [2] | Structure (SMILES) | further results |
| --- | --- | --- |
| – | Nc1ncccc1-c1nc2ccc(-c3cccc(O)c3F)nc2n1-c1ccc(C2(N)CCC2)cc1 [Example 445, 3-{3-[4-(1-aminocyclobutyl)phenyl]-2-(2-aminopyridin-3-yl)-3H-imidazo[4,5-b]pyridin-5-yl}-2-fluorophenol] | IC50 [1]: 0.014 µM |
| 0.046 µM | Nc1ncccc1-c1nc2ccc(-c3cccnc3)nc2n1-c1ccc(CC(=O)Nc2ccccc2)cc1 [Example 257, 2-(4-(2-(2-aminopyridin-3-yl)-5-(pyridin-3-yl)-3H-imidazo[4,5-b]pyridin-3-yl)phenyl)-N-phenylacetamide] | – |
| – | Nc1ncccc1-c1nc2cc(Br)cnc2n1-c1ccc(CNS(=O)(=O)c2cccc(Cl)c2)cc1 [Example 156, N-{4-[2-(2-aminopyridin-3-yl)-6-bromo-3H-imidazo[4,5-b]pyridin-3-yl]benzyl}-3-chlorobenzenesulfonamide] | IC50 [3]: 1.2 µM |
| 0.012 µM | Nc1ncc(-c2ccc3nc(-c4cccnc4N)n(-c4ccc(CNC(=O)c5cccc(F)c5)cc4)c3n2)cn1 [Example 306, N-(4-(2-(2-aminopyridin-3-yl)-5-(2-aminopyrimidin-5-yl)-3H-imidazo[4,5-b]pyridin-3-yl)benzyl)-3-fluorobenzamide] | – |
| 0.01 µM | Nc1ncc(Cl)cc1-c1nc2ccc(-c3ccccc3)nc2n1-c1ccc(C2(N)CCC2)cc1 [Example 368, 3-(3-(4-(1-aminocyclobutyl)phenyl)-5-phenyl-3H-imidazo[4,5-b]pyridin-2-yl)-5-chloropyridin-2-amine] | – |
| 0.2 µM | Nc1ncccc1-c1nc2ccc(N3CCCCC3)nc2n1-c1ccc(CNC(=O)c2ccccc2)cc1 [Example 192, N-(4-(2-(2-aminopyridin-3-yl)-5-(piperidin-1-yl)-3H-imidazo[4,5-b]pyridin-3-yl)benzyl)benzamide] | – |
| – | Nc1ncccc1-c1nc2ccc(-c3ccnc(O)c3)nc2n1-c1ccc(C2(N)CCC2)cc1 [Example 448, 4-{3-[4-(1-aminocyclobutyl)phenyl]-2-(2-aminopyridin-3-yl)-3H-imidazo[4,5-b]pyridin-5-yl}pyridin-2-ol] | IC50 [1]: 0.0039 µM |
| – | Nc1ncccc1-c1nc2cccnc2n1-c1ccc(CNC(=O)c2ccc(OC(F)(F)F)cc2)cc1 [Example 47] | IC50 [3]: 0.378 µM |
| 0.084 µM | Cc1cnc2c(c1)nc(-c1cccnc1N)n2-c1ccc(CNC(=O)c2ccc(Cl)cc2F)cc1 [Example 217, N-(4-(2-(2-aminopyridin-3-yl)-6-methyl-3H-imidazo[4,5-b]pyridin-3-yl)benzyl)-4-chloro-2-fluorobenzamide] | – |
| 0.44 µM | Cn1cnc(S(=O)(=O)NCc2ccc(-n3c(-c4cccnc4N)nc4cc(Br)cnc43)cc2)c1 [Example 166, N-{4-[2-(2-aminopyridin-3-yl)-6-bromo-3H-imidazo[4,5-b]pyridin-3-yl]benzyl}-1-methyl-1H-imidazole-4-sulfonamide] | – |
| 0.016 µM | Cc1ccc2nc(-c3cccnc3N)n(-c3ccc(CNC(=O)c4cccc(F)c4)cc3)c2n1 [Example 247, N-(4-(2-(2-aminopyridin-3-yl)-5-methyl-3H-imidazo[4,5-b]pyridin-3-yl)benzyl)-3-fluorobenzamide] | – |
| – | Nc1ncccc1-c1nc2ccc(-c3cccc4[nH]ncc34)nc2n1-c1ccc(C2(N)CCC2)cc1 [Example 442, 3-{3-[4-(1-aminocyclobutyl)phenyl]-5-(1H-indazol-4-yl)-3H-imidazo[4,5-b]pyridin-2-yl}pyridin-2-amine] | IC50 [1]: 0.0049 µM |
| 0.005 µM | Nc1ncccc1-c1nc2ccc(-c3cccc(OC(F)(F)F)c3)nc2n1-c1ccc(C2(N)CCC2)cc1 [Example 426, 3-{3-[4-(1-aminocyclobutyl)phenyl]-5-[3-(trifluoromethoxy)phenyl]-3H-imidazo[4,5-b]pyridin-2-yl}pyridin-2-amine] | – |
| 0.22 µM | Cc1cnc2c(c1)nc(-c1cccnc1N)n2-c1ccc(CNC(=O)c2cc(F)ccc2F)cc1 [Example 283, N-(4-(2-(2-aminopyridin-3-yl)-6-methyl-3H-imidazo[4,5-b]pyridin-3-yl)benzyl)-2,5-difluorobenzamide] | – |
| – | Nc1ncccc1-c1nc2cccnc2n1-c1ccc(CNC(=O)Nc2ccccc2Cl)cc1 [Example 90] | IC50 [3]: 0.394 µM |
| 0.15 µM | CC(C)(C)OC(=O)NCc1ccc(-n2c(-c3cccnc3N)nc3ccc(-c4cn[nH]c4)nc32)cc1 [Example 354, tert-butyl 4-(2-(2-aminopyridin-3-yl)-5-(1H-pyrazol-4-yl)-3H-imidazo[4,5-b]pyridin-3-yl)benzylcarbamate] | – |
| 0.24 µM | Cc1cnc2c(c1)nc(-c1cccnc1N)n2-c1ccc(CNC(=O)c2ccc(F)cc2)cc1 [Example 228, N-(4-(2-(2-aminopyridin-3-yl)-6-methyl-3H-imidazo[4,5-b]pyridin-3-yl)benzyl)-4-fluorobenzamide] | – |
